According to ChEMBL document CHEMBL1201862, “PubChem BioAssay data set” (2004):
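Protocol summary: plate cells (96-well), add compound at 5 concentrations, incubate 48 h, interpolate endpoints linearly. At the GI50, growth is halved.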 Active and inactive are the calls of the source. No stated cut-off is given here; in the data, active = GI50 up to about 1.1 µM and inactive = higher.

What was measured:
Experiment in all cases: NCI anticancer screen, dose series, 48 h
[1] = tested on: NCI-H226
[2] = tested on: SK-OV-3
[3] = tested on: SK-MEL-5
[4] = tested on: A498
[5] = tested on: CCRF-CEM
[6] = tested on: HCT-116
[7] = tested on: U-251
[8] = tested on: KM12
[9] = tested on: K562
[10] = tested on: HCT-15
[11] = tested on: RXF 393
[12] = tested on: ACHN
[13] = tested on: HOP-62
[14] = tested on: SN12C
[15] = tested on: IGROV-1
[16] = tested on: Malme-3M
[17] = tested on: MOLT-4
[18] = tested on: SNB-75
[19] = tested on: TK-10
[20] = tested on: SF-539

## CCOC(=O)N1c2ccccc2N(C(=O)OCC)C1CC(=O)/C=C/c1ccccc1
[1]
  GI50: 2.81 µM (inactive)
[2]
  GI50: 5.35 µM (inactive)
[3]
  GI50: 2.47 µM (inactive)
[4]
  GI50: 3.37 µM (inactive)
[5]
  GI50: 1.86 µM (inactive)
[6]
  GI50: 3.3 µM (inactive)
[7]
  GI50: 3.46 µM (inactive)
[8]
  GI50: 3.05 µM (inactive)
[9]
  GI50: 3.72 µM (inactive)
[10]
  GI50: 2.98 µM
[11]
  GI50: 3.85 µM (inactive)
[12]
  GI50: 4.15 µM (inactive)
[13]
  GI50: 3.99 µM (inactive)
[14]
  GI50: 3.66 µM (inactive)
[15]
  GI50: 3.63 µM (inactive)
[16]
  GI50: 4.06 µM (inactive)
[17]
  GI50: 2.4 µM (inactive)
[18]
  GI50: 3.34 µM (inactive)
[19]
  GI50: 3.74 µM (inactive)

## CCOP(=O)(/C=C/n1cnc2c(=O)n(C(C)=O)c(N)nc21)OCC
[1]
  GI50: 70.3 µM (inactive)
[2]
  GI50: > 100 µM (inactive)
[3]
  GI50: > 100 µM (inactive)
[4]
  GI50: > 100 µM (inactive)
[5]
  GI50: > 100 µM (inactive)
[6]
  GI50: > 100 µM (inactive)
[7]
  GI50: > 100 µM (inactive)
[20]
  GI50: > 100 µM (inactive)
[8]
  GI50: > 100 µM (inactive)
[9]
  GI50: > 100 µM (inactive)
[10]
  GI50: > 100 µM
[11]
  GI50: > 100 µM (inactive)
[12]
  GI50: > 100 µM (inactive)
[13]
  GI50: > 100 µM (inactive)
[14]
  GI50: > 100 µM (inactive)
[15]
  GI50: > 100 µM (inactive)
[17]
  GI50: > 100 µM (inactive)
[18]
  GI50: > 100 µM (inactive)
[19]
  GI50: > 100 µM (inactive)

## C/C=C(/C)C(=O)O[C@H]1[C@H]2[C@@H]([C@@H](OC(C)=O)[C@H](C)C(=O)[C@@]34C[C@@H](C)C(=O)[C@]3(/C=C(\C)[C@H]1OC(C)=O)O4)C2(C)C
[1]
  GI50: 3.51 µM (inactive)
[2]
  GI50: 16 µM (inactive)
[3]
  GI50: 3.64 µM (inactive)
[4]
  GI50: 4.75 µM (inactive)
[5]
  GI50: 0.463 µM (active)
[6]
  GI50: 3.1 µM (inactive)
[7]
  GI50: 5.7 µM (inactive)
[20]
  GI50: 3.1 µM (inactive)
[8]
  GI50: 5.58 µM (inactive)
[9]
  GI50: 2.6 µM (inactive)
[10]
  GI50: 3 µM
[11]
  GI50: 3.6 µM (inactive)
[12]
  GI50: 3.8 µM (inactive)
[13]
  GI50: 3.15 µM (inactive)
[14]
  GI50: 2.42 µM (inactive)
[15]
  GI50: 4.5 µM (inactive)
[17]
  GI50: 1.83 µM (inactive)
[18]
  GI50: 4.98 µM (inactive)
[19]
  GI50: 3.45 µM (inactive)

## NCCCN(CCCN(C(=O)Nc1ccccc1)c1ccccc1)C(=O)Nc1ccccc1
[1]
  GI50: 44 µM (inactive)
[2]
  GI50: 45.6 µM (inactive)
[3]
  GI50: 18.5 µM (inactive)
[4]
  GI50: 87.1 µM (inactive)
[5]
  GI50: 59.2 µM (inactive)
[6]
  GI50: 18.6 µM (inactive)
[7]
  GI50: 36.6 µM (inactive)
[9]
  GI50: 34.9 µM (inactive)
[10]
  GI50: 28.9 µM
[11]
  GI50: 24.5 µM (inactive)
[12]
  GI50: 55.7 µM (inactive)
[13]
  GI50: 25.1 µM (inactive)
[14]
  GI50: 64.9 µM (inactive)
[15]
  GI50: 51.1 µM (inactive)
[16]
  GI50: 20 µM (inactive)
[17]
  GI50: 52 µM (inactive)
[18]
  GI50: 23.2 µM (inactive)
[19]
  GI50: 38.4 µM (inactive)

## COC(=O)C(=O)C(C(=O)C(=O)Nc1ccc(OC)cc1[N+](=O)[O-])c1nc2ccc([N+](=O)[O-])cc2nc1O (configuration not stated)
[1]
  GI50: > 100 µM (inactive)
[2]
  GI50: > 100 µM (inactive)
[4]
  GI50: > 100 µM (inactive)
[5]
  GI50: > 100 µM (inactive)
[6]
  GI50: > 100 µM (inactive)
[7]
  GI50: > 100 µM (inactive)
[8]
  GI50: > 100 µM (inactive)
[9]
  GI50: > 100 µM (inactive)
[10]
  GI50: > 100 µM
[11]
  GI50: > 100 µM (inactive)
[12]
  GI50: > 100 µM (inactive)
[13]
  GI50: > 100 µM (inactive)
[14]
  GI50: > 100 µM (inactive)
[15]
  GI50: > 100 µM (inactive)
[16]
  GI50: > 100 µM (inactive)
[17]
  GI50: > 100 µM (inactive)
[18]
  GI50: 26.5 µM (inactive)
[19]
  GI50: > 100 µM (inactive)

## C=C1CC(CC)(CCN2C(=O)c3ccccc3C2=O)OC1=O (configuration not stated)
[1]
  GI50: 13.8 µM (inactive)
[3]
  GI50: 12.9 µM (inactive)
[4]
  GI50: 19.2 µM (inactive)
[5]
  GI50: 7.71 µM (inactive)
[6]
  GI50: 12.6 µM (inactive)
[7]
  GI50: > 10 µM (inactive)
[20]
  GI50: 18.9 µM (inactive)
[8]
  GI50: 21 µM (inactive)
[9]
  GI50: 20.8 µM (inactive)
[10]
  GI50: 13.9 µM
[11]
  GI50: 15.5 µM (inactive)
[12]
  GI50: 14.9 µM (inactive)
[13]
  GI50: 35.9 µM (inactive)
[14]
  GI50: 18.6 µM (inactive)
[15]
  GI50: 35.8 µM (inactive)
[16]
  GI50: 11.8 µM (inactive)
[17]
  GI50: 21.9 µM (inactive)
[18]
  GI50: 43.8 µM (inactive)
[19]
  GI50: 17.7 µM (inactive)
